According to ChEMBL document CHEMBL5335806, “Cytotoxic leuconoxine-type diazaspiroindole alkaloids isolated from Cryptolepis dubia” (Bioorg Med Chem Lett, 2024):
Values after ≈ are worked out from the molar mass of the structure shown.

Assays:
MDA-MB-435 = test: Cytotoxicity against human MDA-MB-435 cells assessed as inhibition of cell viability incubated for 72 hrs; assay type: functional, cell-based; settings: MDA-MB-435, 72 h
MDA-MB-231 = test: Cytotoxicity against human MDA-MB-231 cells assessed as inhibition of cell viability incubated for 72 hrs; assay type: functional, cell-based; settings: MDA-MB-231, 72 h
HT-29 = test: Cytotoxicity against human HT-29 cells assessed as inhibition of cell viability incubated for 72 hrs; assay type: functional, cell-based; settings: HT-29, 72 h
OVCAR-3 = test: Cytotoxicity against human OVCAR-3 cells assessed as inhibition of cell viability incubated for 72 hrs; assay type: functional, cell-based; settings: OVCAR-3, 72 h
Micrococcus luteus = test: Antibacterial activity against Micrococcus luteus by a two-fold serial dilution method; assay type: functional
Salmonella typhimurium = test: Antibacterial activity against Salmonella typhimurium TISTR 291 by a two-fold serial dilution method; assay type: functional, Salmonella enterica subsp. enterica serovar Typhimurium; settings: Salmonella enterica
Escherichia coli = test: Antibacterial activity against Escherichia coli TISTR 780 by a two-fold serial dilution method; assay type: functional
[1] = tested on: Staphylococcus epidermidis; test: Antibacterial activity against Staphylococcus epidermidis by a two-fold serial dilution method; assay type: functional

MIC (Micrococcus luteus) [µg/mL] | MIC (Salmonella typhimurium) [µg/mL] | MIC (Escherichia coli) [µg/mL] | MIC [1] [µg/mL] | Structure (SMILES) | IC50 (MDA-MB-435) [µM] | IC50 (MDA-MB-231) [µM] | IC50 (HT-29) [µM] | IC50 (OVCAR-3) [µM]
 |  |  |  | CC[C@@]12CCCN3C(=O)C(Cl)=C4c5ccccc5N(C(=O)CC1)[C@]432 | > 10 | > 10 | > 10 | 5.9
64 (≈ 208 µM) | 64 (≈ 208 µM) | 64 (≈ 208 µM) | 64 (≈ 208 µM) | CC[C@@]12CCCN3C(=O)C=C4c5ccccc5N(C(=O)CC1)[C@]432 | > 10 | > 10 | > 10 | 9.1
